Key:
Type in all cases: in vivo
[1] = 7-day multiple-dose MTD toxicologic study of Y15, oral gavage, CD-1 mice; settings: both sexes, CD-1, mouse, in vivo, oral gavage in mice, daily for 7 days
Method: (§5) • A 7-day, multiple-dose maximum tolerated dose toxicologic study of the chemical 1,2,4,5-Benzenetetramine tetrahydrochloride (Y15) was performed in CD-1 mice.
(§6) • The chemical 1,2,4,5-Benzenetetramine tetrahydrochloride (Y15) was the test article. Y-15 is a chemical grade compound available through Sigma-Aldrich, The test article was prepared in phosphate buffered saline (PBS). The test article was prepared by the sponsor and delivered to the study director prior to the study. The test article was stored in the freezer (0° C.), protected from light.
(§7) • The CD-1 [Hsd:ICR(CD-1)] albino mouse was used. […] Mice were obtained from Harlan (Frederick, Md.). • Mice were acclimated for a minimum of 2 days prior to testing. 20 male and 20 female mice, nulliparous and non-pregnant, were used. Normal weight gain, appearance and behavior were factors used to select healthy mice for testing. Only naive animals were used. Mice weighed 22-35 grams (males) and 20-27 grams (females), and were in good health at the start of the study. Mice were randomly assigned to 4 experimental groups (controls, low-dose, medium-dose, and high-dose) consisting of 5 males and 5 females. Mice were identified via cage cards, tail markings, and ear punch. Mouse identification codes contained information regarding experimental group (C=control, L=low-dose, M=medium-dose, H=high-dose), sex (M=male, F=female), and animal number (1-5). […] Tap water acidified to a pH of 2.5-3.5 was provided in autoclaved water bottles ad libitum. […] Environmental conditions in the animal housing room were maintained at an ambient temperature of 70±3°, relative humidity of 30-70%, and a 12:12 light-dark cycle. Animal housing rooms were ventilated with 100% fresh, HEPA filtered air with 10-15 air changes per hour.
(§8) A 7-day multiple-dose MTD toxicology study was performed.
(§9) The test article Y-15 was prepared in PBS and administered orally (PO) via orogastric gavage as a single daily dose on days 0-6 in the morning. The test article (Y-15) was diluted with the control article (PBS) so as not to exceed a volume of 100 μL. The test article was stored in the freezer (0° C.) and allowed to thaw and come to room temperature prior to administration. Mice were randomly allocated into 4 groups (controls, low-dose, medium-dose, and high-dose) consisting of 5 males and 5 females. Dosages were calculated on a “per mouse” basis, not on a mg/kg basis. […] Mice in the high-dose group received the equivalent of a 300 mg/kg dose for a 20 g mouse (6 mg). Mice in the control group received 100 μL of the control article (PBS). Groups received the following doses, drug concentrations, and gavage volumes, as outlined in Table 2:

[2] = system: CD-1 mice; assay: as above
Method: as §5, §6, §7, §8, §9

[3] = 7-day single-dose MTD toxicologic study of Y15, oral gavage, CD-1 mice; settings: both sexes, CD-1, mouse, in vivo, po
Method: (§1) • A 7-day, single-dose maximum tolerated dose toxicologic study of the chemical 1,2,4,5-Benzenetetramine tetrahydrochloride (Y-15) was performed in CD-1 mice.
(§2) • The chemical 1,2,4,5-Benzenetetramine tetrahydrochloride (Y-15) was the test article. Y-15 is a chemical grade compound available through Sigma-Aldrich. The test article was prepared in phosphate buffered saline (PBS). The test article was prepared by the sponsor and delivered to the study director prior to the study. The test article was stored in the freezer (0° C.), protected from light.
(§3) • The CD-1 [Hsd:ICR(CD-1)] albino mouse was used. The CD-1 mouse is conventionally used in toxicity tests to provide information on which human hazards can be judged, and is one of the choices of species preferred by regulatory agencies. Mice were obtained from Harlan (Frederick, Md.). • Mice were acclimated for a minimum of 2 days prior to testing. […] mice, nulliparous and non-pregnant, were used. Normal weight gain, appearance and behavior were factors used to select healthy mice for testing. Only naive animals were used. Mice were 4-7 weeks old, weighed 22-34 grams (males) and 19-24 grams (females), and were in good health at the start of the study. Mice were 5-8 weeks old, weighed 23-36 grams (males) and 20-25 grams (females) at the conclusion of the study. • Mice were randomly assigned to 8 experimental groups consisting of 3 males and 3 females which received increasing doses of the chemical Y-15. Mice were identified via cage cards, tail markings, and ear punch. Mouse identification codes contained information regarding experimental group (A=15 mg/kg dose group, B=30 mg/kg dose group, C=60 mg/kg dose group, D=90 mg/kg dose group, E=120 mg/kg dose group, F=150 mg/kg dose group, G=200 mg/kg dose group, and H=250 mg/kg dose group), sex (M=male, F=female), and animal number (1-3). Mice were fed autoclaved Harlan-Teklad sterilizable 7012 mouse/rat diet ad libitum. The feed is routinely analyzed by the manufacturer for nutritional components and environmental contaminants. Tap water acidified to a pH of 2.5-3.5 was provided in autoclaved water bottles ad libitum. Municipal water supply is analyzed by the Bureau Veritas Consumer Product Services of Buffalo, NY on an annual basis. […]
(§4) • The test article 1,2,4,5-Benzenetetramine tetrahydrochloride (Y15) was prepared in PBS and administered orally (PO) via orogastric gavage as a single dose on day 0 in the morning. […] Dosages were calculated on a “per mouse” basis, not on a mg/kg basis. […]

[4] = system: CD-1 mice; assay: as above
Method: as §1, §2, §3, §4

Cl.Cl.Cl.Cl.Nc1cc(N)c(N)cc1N [Y15, 1,2,4,5-benzenetetraamine tetrahydrochloride]
MTD at 7 days [1]: ≥ 100 mg/kg | NOAEL at 7 days ([1]; read-out: no observable adverse effects level (NOAEL)): 100 mg/kg | maximal tolerated dose (summary statement) ([2]; delivery 5 days/week, duration 7 days): 200 mg/kg | toxicity findings, medium-dose group ([2]; oral gavage daily days 0-6, 100 mg/kg): no mortality, clinical signs of toxicity, or decrement in mean body weight | toxicity findings, high-dose group ([2]; oral gavage daily days 0-6, 200 mg/kg): weight loss, severe clinical signs of abdominal distention, and mortality due to gastrointestinal dilatation | MTD at 7 days [3]: 200 mg/kg | maximal tolerated dose (summary statement) ([4]; delivery once /week, duration 7 days): 250 mg/kg | toxicity findings, other dose groups ([4]; single oral gavage dose, 15-200 mg/kg groups): no mortality, adverse clinical signs, or decrement in body weight greater than 10% | mortality, highest dose group ([4]; single oral gavage dose, group H 250 mg/kg): mortality was seen

Source: patent publication US20140194477A1, “KINASE PROTEIN BINDING INHIBITORS” (Roswell Park Cancer Institute, priority 2011, published 2014)
